Measured values published in PubChem BioAssay (NCI).
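Five compound concentrations were applied to cells in 96-well plates for 48 hours; endpoints were derived by simple linear interpolation of the resulting dose-response curve. The concentration for 50% growth inhibition is given as GI50. TGI denotes the concentration required for complete inhibition of growth.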

Legend:
Experiment in all cases: NCI tumour cell line growth inhibition, 48 h
786-0 renal = tested on: 786-0 renal
A498 renal = tested on: A498 renal
A549 NSCLC = tested on: A549 NSCLC
ACHN renal = tested on: ACHN renal
BT-549 breast = tested on: BT-549 breast
CAKI-1 renal = tested on: CAKI-1 renal
CCRF-CEM leukemia = tested on: CCRF-CEM leukemia
COLO 205 colon = tested on: COLO 205 colon
DU-145 prostate = tested on: DU-145 prostate
EKVX NSCLC = tested on: EKVX NSCLC
HCC-2998 colon = tested on: HCC-2998 colon
HCT-116 colon = tested on: HCT-116 colon
HCT-15 colon = tested on: HCT-15 colon
HL-60(TB) leukemia = tested on: HL-60(TB) leukemia
HOP-62 NSCLC = tested on: HOP-62 NSCLC
HOP-92 NSCLC = tested on: HOP-92 NSCLC
HS 578T breast = tested on: HS 578T breast
HT29 colon = tested on: HT29 colon
IGROV1 ovarian = tested on: IGROV1 ovarian
K-562 leukemia = tested on: K-562 leukemia
KM12 colon = tested on: KM12 colon
LOX IMVI melanoma = tested on: LOX IMVI melanoma
M14 melanoma = tested on: M14 melanoma
MALME-3M melanoma = tested on: MALME-3M melanoma
MCF7 breast = tested on: MCF7 breast
MDA-MB-231 breast = tested on: MDA-MB-231 breast
MDA-MB-435 = tested on: MDA-MB-435
MOLT-4 leukemia = tested on: MOLT-4 leukemia
NCI-H226 lung = tested on: NCI-H226 lung
NCI-H23 lung = tested on: NCI-H23 lung
NCI-H460 lung = tested on: NCI-H460 lung
NCI-H522 lung = tested on: NCI-H522 lung
NCI/ADR-RES ovarian = tested on: NCI/ADR-RES ovarian
OVCAR-3 ovarian = tested on: OVCAR-3 ovarian
OVCAR-4 ovarian = tested on: OVCAR-4 ovarian
OVCAR-5 ovarian = tested on: OVCAR-5 ovarian
OVCAR-8 ovarian = tested on: OVCAR-8 ovarian
PC-3 prostate = tested on: PC-3 prostate
RPMI-8226 leukemia = tested on: RPMI-8226 leukemia
RXF 393 renal = tested on: RXF 393 renal
SF-268 CNS = tested on: SF-268 CNS
SF-295 CNS = tested on: SF-295 CNS
SF-539 CNS = tested on: SF-539 CNS
SK-MEL-2 melanoma = tested on: SK-MEL-2 melanoma
SK-MEL-28 melanoma = tested on: SK-MEL-28 melanoma
SK-MEL-5 melanoma = tested on: SK-MEL-5 melanoma
SK-OV-3 ovarian = tested on: SK-OV-3 ovarian
SN12C renal = tested on: SN12C renal
SNB-19 CNS = tested on: SNB-19 CNS
SNB-75 CNS = tested on: SNB-75 CNS
SR leukemia = tested on: SR leukemia
SW-620 colon = tested on: SW-620 colon
T-47D breast = tested on: T-47D breast
TK-10 renal = tested on: TK-10 renal
U251 CNS = tested on: U251 CNS
UACC-257 melanoma = tested on: UACC-257 melanoma
UACC-62 melanoma = tested on: UACC-62 melanoma
UO-31 renal = tested on: UO-31 renal

COc1cc(/C=C/C(=O)c2cc(OC)c(OC)c(OC)c2)ccc1Oc1nc(NCCO)nc(N2CCOCC2)n1
GI50 (786-0 renal): 3.46 µM | TGI (786-0 renal): 13 µM | GI50 (A498 renal): 3.58 µM | TGI (A498 renal): 13.3 µM | GI50 (A549 NSCLC): 2.78 µM | TGI (A549 NSCLC): 9.4 µM | GI50 (ACHN renal): 1.64 µM | TGI (ACHN renal): 3.6 µM | GI50 (BT-549 breast): 1.6 µM | TGI (BT-549 breast): 3.32 µM | GI50 (CAKI-1 renal): 2.43 µM | TGI (CAKI-1 renal): 9.16 µM | GI50 (CCRF-CEM leukemia): 2.38 µM | TGI (CCRF-CEM leukemia): 23.5 µM | GI50 (COLO 205 colon): 2.1 µM | TGI (COLO 205 colon): 4.39 µM | GI50 (DU-145 prostate): 2.99 µM | TGI (DU-145 prostate): 12.4 µM | GI50 (EKVX NSCLC): 2.81 µM | TGI (EKVX NSCLC): 9.99 µM | GI50 (HCC-2998 colon): 2.23 µM | TGI (HCC-2998 colon): 4.22 µM | GI50 (HCT-116 colon): 1.53 µM | TGI (HCT-116 colon): 3.23 µM | GI50 (HCT-15 colon): 1.6 µM | TGI (HCT-15 colon): 4.01 µM | GI50 (HL-60(TB) leukemia): 1.54 µM | TGI (HL-60(TB) leukemia): 6.8 µM | GI50 (HOP-62 NSCLC): 2.35 µM | TGI (HOP-62 NSCLC): 6.04 µM | GI50 (HOP-92 NSCLC): 2.75 µM | TGI (HOP-92 NSCLC): 9.99 µM | GI50 (HS 578T breast): 3.62 µM | TGI (HS 578T breast): 22.4 µM | GI50 (HT29 colon): 2.83 µM | TGI (HT29 colon): 8.44 µM | GI50 (IGROV1 ovarian): 2.45 µM | TGI (IGROV1 ovarian): 6.17 µM | GI50 (K-562 leukemia): 1.91 µM | TGI (K-562 leukemia): > 100 µM | GI50 (KM12 colon): 2.99 µM | TGI (KM12 colon): 9.63 µM | GI50 (LOX IMVI melanoma): 0.642 µM | TGI (LOX IMVI melanoma): 2.04 µM | GI50 (M14 melanoma): 2.38 µM | TGI (M14 melanoma): 7.32 µM | GI50 (MALME-3M melanoma): 2.67 µM | TGI (MALME-3M melanoma): 6.74 µM | GI50 (MCF7 breast): 1.72 µM | TGI (MCF7 breast): 10.8 µM | GI50 (MDA-MB-231 breast): 2.86 µM | TGI (MDA-MB-231 breast): 11.3 µM | GI50 (MDA-MB-435): 3.1 µM | TGI (MDA-MB-435): 11 µM | GI50 (MOLT-4 leukemia): 1.98 µM | TGI (MOLT-4 leukemia): 8.02 µM | GI50 (NCI-H226 lung): 3.69 µM | TGI (NCI-H226 lung): 19.7 µM | GI50 (NCI-H23 lung): 1.99 µM | TGI (NCI-H23 lung): 4.8 µM | GI50 (NCI-H460 lung): 1.87 µM | TGI (NCI-H460 lung): 4.03 µM | GI50 (NCI-H522 lung): 1.56 µM | TGI (NCI-H522 lung): 3.17 µM | GI50 (NCI/ADR-RES ovarian): 4.72 µM | TGI (NCI/ADR-RES ovarian): 23.4 µM | GI50 (OVCAR-3 ovarian): 3.2 µM | TGI (OVCAR-3 ovarian): 10.6 µM | GI50 (OVCAR-4 ovarian): 2.92 µM | TGI (OVCAR-4 ovarian): 10.5 µM | GI50 (OVCAR-5 ovarian): 3.14 µM | TGI (OVCAR-5 ovarian): 10.6 µM | GI50 (OVCAR-8 ovarian): 2.56 µM | TGI (OVCAR-8 ovarian): 10.1 µM | GI50 (PC-3 prostate): 3.11 µM | TGI (PC-3 prostate): 13.5 µM | GI50 (RPMI-8226 leukemia): 1.63 µM | TGI (RPMI-8226 leukemia): 5.85 µM | GI50 (RXF 393 renal): 1.75 µM | TGI (RXF 393 renal): 3.48 µM | GI50 (SF-268 CNS): 3.02 µM | TGI (SF-268 CNS): 12.9 µM | GI50 (SF-295 CNS): 2.9 µM | TGI (SF-295 CNS): 10.6 µM | GI50 (SF-539 CNS): 1.88 µM | TGI (SF-539 CNS): 4.58 µM | GI50 (SK-MEL-2 melanoma): 2.76 µM | TGI (SK-MEL-2 melanoma): 8.19 µM | GI50 (SK-MEL-28 melanoma): 1.92 µM | TGI (SK-MEL-28 melanoma): 3.81 µM | GI50 (SK-MEL-5 melanoma): 1.77 µM | TGI (SK-MEL-5 melanoma): 3.31 µM | GI50 (SK-OV-3 ovarian): 2.44 µM | TGI (SK-OV-3 ovarian): 6.34 µM | GI50 (SN12C renal): 1.79 µM | TGI (SN12C renal): 5.72 µM | GI50 (SNB-19 CNS): 2.31 µM | TGI (SNB-19 CNS): 7.07 µM | GI50 (SNB-75 CNS): 1.79 µM | TGI (SNB-75 CNS): 6.2 µM | GI50 (SR leukemia): 0.784 µM | TGI (SR leukemia): 4.8 µM | GI50 (SW-620 colon): 2.24 µM | TGI (SW-620 colon): 5.78 µM | GI50 (T-47D breast): 3.12 µM | TGI (T-47D breast): 11.8 µM | GI50 (TK-10 renal): 3.12 µM | TGI (TK-10 renal): 8.93 µM | GI50 (U251 CNS): 1.62 µM | TGI (U251 CNS): 3.12 µM | GI50 (UACC-257 melanoma): 2.83 µM | TGI (UACC-257 melanoma): 12.7 µM | GI50 (UACC-62 melanoma): 1.69 µM | TGI (UACC-62 melanoma): 3.19 µM | GI50 (UO-31 renal): 1.66 µM | TGI (UO-31 renal): 3.28 µM
